Measured values: paper PMC10734441, “Comparative biodegradation analysis of three compostable polyesters by a marine microbial community” (Applied and Environmental Microbiology, 2023)

What was measured:
Assay in all cases: 4-nitrophenol release, absorbance at […] nm, nonlinear regression
Type in all cases: biochemical, Pseudomonas sp. (bin 31)
Conditions in all cases: phosphate-buffered saline pH 7.4; 20°C (methods: room temperature); 0.1-2.4 mM substrate
[1] = tested on: T1, Ple-solo
T1 construct: codon-optimized synthetic gene in pCold II, E. coli Origami (DE3), His-tag purified plus size exclusion

[2] = tested on: T2, Ple-tan2
T2 construct: codon-optimized synthetic gene in pCold II, E. coli Origami (DE3), His-tag purified

[3] = tested on: T3, Ple-tan1
T3 construct: codon-optimized synthetic gene in pCold II, E. coli Origami (DE3), His-tag purified plus size exclusion

- Km [1]: 254 ± 55 µM
- Km [2]: 1420 ± 94 µM
- Km [3]: 454 ± 54 µM
Structure (SMILES): CCCC(=O)Oc1ccc([N+](=O)[O-])cc1 [para-nitrophenyl butyrate]
